Experimental findings from ChEMBL document CHEMBL1201862, “PubChem BioAssay data set” (2004) are described below.

Common to all, as to assay: DTP human tumour cell line panel, 48 h
The test system of assay [1] is RXF 631.
The subject of assay [2] is XF498.
Assay [3] has as its system KM-20L2.
For assay [4], the system named is LXFL 529.
The subject of assay [5] is DMS-114.
Assay [6] has as its system SNB-78.
Assay [7] relates to DMS-273.
In assay [8] the test system is BT-549.
Assay [9] has as its system HOP-18.

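A five-concentration, 48-hour dose response in 96-well plates underlies each endpoint, interpolated linearly between surrounding concentrations. GI50 marks 50% less growth.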 Calls of active or inactive are those of the source. Rule as the data show it: active = GI50 up to about 1.1 µM and inactive = higher. A value given as a limit tells only on which side of the number the result lay.

One may read the GI50 as the concentration at which growth is held to half of that of the control.

Consider `O=C(O)C12C3C4C1C1C2C3C41I` (centres undefined), for which the GI50 in [1], in [2], in assay [3], in [4], in assay [5] and in assay [6] was > 100 µM (inactive) each time. The GI50 in assay [7] is > 100 µM (inactive).
As for `O=C(NC(=O)c1ccccc1[N+](=O)[O-])Nc1ccc(Oc2ncc(Cl)cn2)c([N+](=O)[O-])c1`, the GI50 in assay [1] was 0.286 µM (active); in assay [2], 0.818 µM (active); in assay [8], 31.5 µM (inactive); in assay [3] it was 0.121 µM (active); in assay [4], 0.217 µM (active); in [9], > 100 µM (inactive). Besides, the concentration for 50% growth inhibition (GI50) was 0.0865 µM (active) in assay [5], 0.252 µM (active) in assay [6] and 0.0738 µM (active) in assay [7].
On to `COc1ccc(S(=O)(=O)N/N=C(\C)CN2C(=O)c3ccccc3C2=O)cc1OC`, for which the GI50 in [2], in assay [3], in assay [4], in assay [9], in [5] and in assay [6] was > 100 µM (inactive) each time. In assay [7], the GI50 was > 100 µM (inactive).
As for `O=S(=O)(N/N=C\c1c2ccccc2[n+]([O-])c2ccccc12)c1ccc(Cl)cc1`, the GI50 in assay [1] was > 100 µM (inactive); in assay [3] it was > 100 µM (inactive); in assay [4], > 100 µM (inactive); in assay [9], 32.4 µM (inactive); in assay [5] it was > 100 µM (inactive); in assay [6], > 100 µM (inactive). Also, the GI50 in assay [7] was 93.3 µM (inactive).
On to `S=c1c2ccccc2c(=S)n2n1CC=CC2`, for which the GI50 in [1], in assay [3], in assay [4], in [9], in [5] and in assay [6] was > 100 µM (inactive) throughout. Moreover, the GI50 in [7] was > 100 µM (inactive).
Regarding `CCCCCCc1cc2c(C)c(C)c(=O)oc2cc1OCCCOc1cc2oc(=O)c(C)c(C)c2cc1CCCCCC`, the GI50 in assay [2], in [3], in assay [4], in assay [9], in assay [5] and in assay [6] was > 100 µM (inactive) in each case. The GI50 in assay [7] is > 100 µM (inactive).
For the compound `Cc1cc(=O)oc2c1cc(OCC(=O)OCCN1CCCCC1)c1occ(C)c12`, the GI50 in assay [2], in assay [3], in assay [4], in assay [9], in [5] and in assay [6] was > 100 µM (inactive) each time. For the same compound, in [7], the GI50 was > 100 µM (inactive).
Regarding `O=C1C(Cl)=C(Cl)C(=O)N1c1ccc(Cl)c(Cl)c1Cl`, the GI50 was > 100 µM (inactive) in [1]; > 100 µM (inactive) in assay [3]; 28.1 µM (inactive) in assay [4]; > 100 µM (inactive) in assay [9]; 32.7 µM (inactive) in assay [5]; > 100 µM (inactive) in [6]. The GI50 in assay [7] is > 100 µM (inactive).
Take `N/N=C(\c1nc2ccc(Cl)cc2nc1O)C(O)c1ccc(Cl)c(Cl)c1` (centres undefined): the GI50 in [1], in assay [2], in [3], in assay [4], in assay [5] and in assay [6] was > 100 µM (inactive) throughout. In addition, the GI50 in [7] is 81.1 µM (inactive).
As to `CCC1(OC(C)=O)C(=O)OCc2c1cc1n(c2=O)Cc2cc3ccccc3nc2-1` (centres undefined), the GI50 is 3.85 µM (inactive) in assay [1]; 17.9 µM (inactive) in assay [2]; 7.01 µM (inactive) in assay [3]; 15 µM (inactive) in assay [4]; > 34.8 µM (inactive) in [9]; 0.611 µM (active) in [5]. For the same compound, the figures for the GI50 in [6] and in assay [7] were > 40.9 µM (inactive) and 0.388 µM (active), respectively.
In the case of `C=C1C(=O)C23CC1CCC2C12CO[C@@]3(O)[C@@H](O)C1C(C)(C)C=CC2=O` (some centres undefined), the GI50 in [1] is 1.03 µM (active); in assay [2], 0.791 µM (active); in [3], 1.44 µM (inactive); in [9] it was 1.19 µM (inactive); in assay [6] it was 0.718 µM (active); in assay [7] it was 0.568 µM (active).
Regarding `CC(=O)OC[C@@H](COC(=O)/C=C/c1ccc(O)cc1)OC1OC(CO)C(O)C(O)C1O` (some centres undefined), the GI50 in assay [1], in [2], in assay [3], in [4], in assay [9] and in assay [6] was > 100 µM (inactive) in each case.
Take `c1ccc([S+](c2ccccc2)c2ccc(Sc3ccc([S+](c4ccccc4)c4ccccc4)cc3)cc2)cc1`: the GI50 in assay [1] is 58.2 µM (inactive); in assay [2] it was 11.4 µM (inactive); in assay [3], 16.8 µM (inactive); in [4], 18 µM (inactive); in assay [9], 30.5 µM (inactive); in assay [5], 3.2 µM (inactive). The GI50 is 27.9 µM (inactive) in assay [6] and 19.5 µM (inactive) in [7].
As for `CSc1ccc2c(cc1=O)[C@@H](NC(=O)c1cc(O)c(O)c(O)c1)CCc1cc(O)c(O)c(O)c1-2`, the GI50 in [1] was 15.5 µM (inactive); in [2], 15.4 µM (inactive); in assay [3], 68.7 µM (inactive); in assay [4] it was 18.9 µM (inactive); in [6], 31 µM (inactive); in assay [7], 20.5 µM (inactive).
